Assay results published in publication PMC6677754, “In silico design and optimization of selective membranolytic anticancer peptides” (Scientific Reports, 2019).
Peptide text beside a SMILES is read from it.

What was measured:
[1] = tested on: A549 lung adenocarcinoma cell line; assay: Cell viability assay (MTT); type: cell-based, human; details: Table S2; MTT, 24 h; mean ± sd; N = 2 independent measurements with six technical replicates each (Figs S6-S8); read-out: A549 EC50 /µM
Procedure, shortened: (§1)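 Viability by MTT: 10^4 cells/well exposed 24 h to 2-fold peptide dilutions from 100 μM in DMEM, then 1 h with 0.5 mg mL−1 MTT; absorbance at 540 nm relative to peptide-free medium as 100% survival. EC50 from a 3-parameter log-logistic fit.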

[2] = tested on: MCF7 breast adenocarcinoma cell line; assay: Cell viability assay (MTT); type: cell-based, human; details: Table S2, 24 h, mean ± sd, N = 2 independent measurements with six technical replicates each (Figs S6-S8)
Procedure, shortened: as §1

[3] = tested on: noncancer HDMEC primary cells (human dermal microvascular endothelial cells); assay: Cell viability assay (MTT); type: cell-based; details: Table S2; noncancer primary cells; MTT, 24 h; mean ± sd; N = 2 independent measurements with six technical replicates each (Figs S6-S8)
Procedure, shortened: as §1

human erythrocytes = assay: Hemolysis assay; type: cell-based; details: red cells of human, 1 h
Procedure, shortened: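 Washed human erythrocytes (5% v/v in PBS) were mixed with peptide plated as a 200–6.25 μM series, in triplicate, for 1 h at 37 °C. Released haemoglobin in the supernatant was read at 540 nm, scaled to 0.1% Triton X-100 (100%) and PBS (0%). HC50 came from a 3-parameter log-logistic fit.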

Row | SMILES | EC50 [1] [µM] | EC50 [2] [µM] | EC50 [3] [µM] | Eryhtr. HC50 /µM (human erythrocytes) [µM]
1 | CC[C@H](C)[C@H](NC(=O)[C@H](CC(C)C)NC(=O)[C@@H](N)CCC(N)=O)C(=O)N[C@@H](Cc1c[nH]cn1)C(=O)N[C@@H](CCCCN)C(=O)N[C@H](C(=O)N[C@@H](CCCNC(=N)N)C(=O)N[C@H](C(=O)N[C@@H](Cc1c[nH]c2ccccc12)C(=O)N[C@@H](Cc1ccc(O)cc1)C(=O)N[C@@H](CCCNC(=N)N)C(=O)N[C@@H](CCCCN)C(=O)N[C@@H](C)C(=O)N[C@@H](Cc1c[nH]c2ccccc12)C(=O)N[C@@H](Cc1c[nH]cn1)C(=O)N[C@H](C(=O)N[C@@H](CC(C)C)C(=O)NCC(=O)N[C@@H](CCCCN)C(=O)N[C@H](C(N)=O)C(C)C)C(C)C)[C@@H](C)O)[C@@H](C)CC [Off2.2.2] (H-QLIHKIRTWYRKAWHVLGKV-NH2) | 20 ± 2 | 13 ± 1 | 28 ± 3 | > 200
2 | CC[C@H](C)[C@H](NC(=O)[C@H](Cc1c[nH]cn1)NC(=O)[C@H](Cc1c[nH]c2ccccc12)NC(=O)[C@H](C)NC(=O)[C@H](CCCCN)NC(=O)[C@H](CCCNC(=N)N)NC(=O)[C@H](CC(C)C)NC(=O)[C@H](Cc1c[nH]c2ccccc12)NC(=O)[C@@H](NC(=O)[C@H](CCCNC(=N)N)NC(=O)[C@H](Cc1c[nH]c2ccccc12)NC(=O)[C@H](CCCCN)NC(=O)[C@H](CCCCN)NC(=O)[C@H](CC(C)C)NC(=O)[C@H](CC(C)C)NC(=O)[C@@H](N)Cc1c[nH]cn1)[C@@H](C)O)C(=O)N[C@H](C(=O)NCC(=O)N[C@@H](CCCCN)C(=O)N[C@H](C(N)=O)C(C)C)C(C)C [Off2.2.3] (H-HLLKKWRTWLRKAWHIVGKV-NH2) | 9 ± 1 | 7 ± 1 | 6.1 ± 0.5 | 59 ± 6
3 | CC[C@H](C)[C@H](NC(=O)[C@H](CCCCN)NC(=O)[C@@H]1CCCN1C(=O)[C@H](Cc1c[nH]c2ccccc12)NC(=O)[C@@H](NC(=O)[C@H](CCC(=O)O)NC(=O)[C@H](Cc1c[nH]c2ccccc12)NC(=O)[C@H](Cc1ccccc1)NC(=O)[C@H](CCCCN)NC(=O)[C@H](CCCCN)NC(=O)[C@@H](NC(=O)[C@@H](NC(=O)[C@@H](NC(=O)[C@H](CCCCN)NC(=O)[C@H](CC(C)C)NC(=O)[C@H](CCC(N)=O)NC(=O)[C@H](CCCNC(=N)N)NC(=O)[C@@H](NC(=O)[C@H](CCCNC(=N)N)NC(=O)[C@@H](N)Cc1c[nH]cn1)[C@@H](C)CC)[C@@H](C)O)[C@@H](C)O)[C@@H](C)CC)[C@@H](C)CC)C(N)=O [Off10] (H-HRIRQLKTTIKKFWEIWPKI-NH2) | 83 ± 11 | 56 ± 5 | 58.1 ± 0.3 | > 200
4 | CC[C@H](C)[C@H](NC(=O)[C@H](CCCCN)NC(=O)CNC(=O)[C@@H](NC(=O)[C@H](CC(C)C)NC(=O)[C@H](Cc1c[nH]cn1)NC(=O)[C@H](Cc1c[nH]c2ccccc12)NC(=O)[C@H](C)NC(=O)[C@H](CCCCN)NC(=O)[C@H](CCCCN)NC(=O)[C@@H](NC(=O)[C@H](Cc1c[nH]c2ccccc12)NC(=O)[C@@H](NC(=O)[C@H](CCCNC(=N)N)NC(=O)[C@@H](NC(=O)[C@H](CCCCN)NC(=O)[C@H](CCCCN)NC(=O)[C@@H](NC(=O)[C@@H](NC(=O)[C@@H](N)CCC(N)=O)[C@@H](C)CC)[C@@H](C)CC)C(C)C)[C@@H](C)O)[C@@H](C)CC)[C@@H](C)CC)C(N)=O [Off2.2.7] (H-QIIKKVRTWIKKAWHLIGKI-NH2) | 12 ± 2 | 8 ± 1 | 17 ± 1 | > 100
5 | CC[C@H](C)[C@H](NC(=O)[C@@H](N)CCC(N)=O)C(=O)N[C@@H](Cc1ccc(O)cc1)C(=O)N[C@@H](CCCCN)C(=O)N[C@@H](CCCCN)C(=O)N[C@@H](Cc1ccc(O)cc1)C(=O)N[C@@H](CCCNC(=N)N)C(=O)N[C@H](C(=O)N[C@@H](Cc1c[nH]c2ccccc12)C(=O)N[C@@H](Cc1ccc(O)cc1)C(=O)N[C@@H](CCCNC(=N)N)C(=O)N[C@@H](CCCCN)C(=O)N[C@@H](C)C(=O)N[C@@H](Cc1c[nH]c2ccccc12)C(=O)N[C@@H](CCCCN)C(=O)N[C@H](C(=O)N[C@@H](CC(C)C)C(=O)NCC(=O)N[C@@H](CCCCN)C(=O)N[C@H](C(N)=O)C(C)C)C(C)C)[C@@H](C)O [Off2.2.10] (H-QIYKKYRTWYRKAWKVLGKV-NH2) | 36 ± 7 | 16.9 ± 0.8 | 71 ± 12 | > 200
6 | CC[C@H](C)[C@H](NC(=O)[C@H](CC(C)C)NC(=O)[C@@H](N)CCCCN)C(=O)N[C@@H](Cc1c[nH]cn1)C(=O)N[C@@H](CCCNC(=N)N)C(=O)N[C@@H](CC(C)C)C(=O)N[C@@H](CCCCN)C(=O)N[C@H](C(=O)N[C@H](C(=O)N[C@@H](Cc1ccccc1)C(=O)N[C@@H](CCCCN)C(=O)N[C@@H](CCCCN)C(=O)N[C@H](C(=O)N[C@@H](Cc1c[nH]c2ccccc12)C(=O)N[C@@H](Cc1c[nH]cn1)C(=O)N[C@@H](Cc1ccccc1)C(=O)N[C@@H](CC(C)C)C(=O)NCC(=O)N[C@@H](Cc1c[nH]cn1)C(=O)N[C@@H](CC(C)C)C(N)=O)C(C)C)C(C)C)[C@@H](C)O [Off9] (H-KLIHRLKTVFKKVWHFLGHL-NH2) | 22 ± 4 | 18.9 ± 0.2 | 22 ± 3 | 41 ± 3
7 | CC(C)C[C@H](NC(=O)[C@H](Cc1c[nH]cn1)NC(=O)[C@H](Cc1c[nH]c2ccccc12)NC(=O)[C@H](C)NC(=O)[C@H](CCCCN)NC(=O)[C@H](CCCNC(=N)N)NC(=O)[C@H](Cc1ccc(O)cc1)NC(=O)[C@H](Cc1c[nH]c2ccccc12)NC(=O)[C@@H](NC(=O)[C@H](CCCNC(=N)N)NC(=O)[C@@H](NC(=O)[C@H](CCCCN)NC(=O)[C@H](CCCCN)NC(=O)[C@H](CC(C)C)NC(=O)[C@H](CC(C)C)NC(=O)[C@@H](N)CCC(N)=O)C(C)C)[C@@H](C)O)C(=O)N[C@@H](Cc1ccc(O)cc1)C(=O)NCC(=O)N[C@@H](CCCCN)C(=O)N[C@H](C(N)=O)C(C)C [Off2.2.5] (H-QLLKKVRTWYRKAWHLYGKV-NH2) | 29.3 ± 0.9 | 16 ± 2 | 27.2 ± 0.5 | > 200
8 | CC[C@H](C)[C@H](NC(=O)[C@H](CC(C)C)NC(=O)[C@H](CCCCN)NC(=O)[C@H](Cc1ccccc1)NC(=O)[C@@H]1CCCN1C(=O)[C@H](CCCCN)NC(=O)[C@H](Cc1c[nH]cn1)NC(=O)[C@H](Cc1ccccc1)NC(=O)[C@H](Cc1c[nH]c2ccccc12)NC(=O)[C@@H](NC(=O)[C@H](CCCCN)NC(=O)[C@H](CC(C)C)NC(=O)[C@H](Cc1c[nH]cn1)NC(=O)[C@H](CCCNC(=N)N)NC(=O)[C@@H](NC(=O)[C@H](Cc1ccc(O)cc1)NC(=O)[C@@H](N)Cc1c[nH]cn1)[C@@H](C)CC)[C@@H](C)O)C(=O)NCC(=O)N[C@@H](CCCCN)C(=O)N[C@H](C(N)=O)C(C)C [Off2.4] (H-HYIRHLKTWFHKPFKLIGKV-NH2) | > 100 | > 100 | 169 ± 28 | > 200
